This note sets out measurements from publication PMC6328587 (Nature Communications, 2019).

Like-named read-outs stand apart in the source and are kept apart here.

For assay [1], the target named is T1, FLAG-p38δ (Homo sapiens, UniProt O15264).
T1 construct: expressed in transfected cells; host or cells: HeLa
T1 sequence (O15264 1-365): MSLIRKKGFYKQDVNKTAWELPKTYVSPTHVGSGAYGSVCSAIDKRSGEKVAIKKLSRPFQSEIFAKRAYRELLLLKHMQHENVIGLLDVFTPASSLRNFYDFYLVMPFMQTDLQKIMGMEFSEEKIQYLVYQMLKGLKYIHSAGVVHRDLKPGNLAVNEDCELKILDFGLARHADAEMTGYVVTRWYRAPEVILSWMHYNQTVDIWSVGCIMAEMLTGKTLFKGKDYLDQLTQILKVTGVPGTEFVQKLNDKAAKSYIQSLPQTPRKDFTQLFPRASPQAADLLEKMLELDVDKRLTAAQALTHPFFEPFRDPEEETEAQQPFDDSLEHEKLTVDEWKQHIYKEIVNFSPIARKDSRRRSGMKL
The assay can be described thus: Ubiquitination assay, FLAG-p38δ and HA-Ub in HeLa cells. It is filed as cell-based. To be noted: 1 µM PROTAC, 2 h. As to the method:
HeLa cells (2 × 10^6) were seeded into 10 cm dishes and allowed to adhere overnight. On the following day, cells were transfected with 3 µg pcDNA5-FLAG-p38α or pcDNA5-FLAG-p38δ and 1 µg pRK5-HA-Ubiquitin-WT (Addgene plasmid #17608) in Opti-MEM media using Lipofectamine 2000 (Invitrogen). After 6 h, Opti-MEM media were replaced with DMEM (1 × ) and cells were grown for an additional 24 h. After this time, cells were treated with indicated concentrations of either vehicle (DMSO) or PROTAC for the indicated amount of time at 37 °C. Cells were then placed on ice, rinsed twice with ice-cold 1X PBS and lysed in 500 µL modified 1X RIPA buffer (25 mM Tris-HCl pH 7.6, 150 mM NaCl, 1% NP-40, 1% sodium deoxycholate, 0.1% SDS) containing 5 mM 1,10-phenanthroline monohydrate, 10 mM N-ethylmaleimide, 20 µM PR-619, and 1X protease inhibitor cocktail (Roche). Lysates were spun down at 14,000 × g at 4 °C for 20 min and protein content was measured by Pierce BCA Protein Assay (ThermoFisher Scientific). […] Immunoprecipitated protein was eluted off of the beads by heating at 95 °C for 5 min and the supernatant was run on an SDS-PAGE gel and evaluated for the presence of immunoprecipitated FLAG-tagged proteins (anti-FLAG M2, Sigma #F1804), as well as ubiquitinated FLAG-tagged proteins (anti-HA-tag (6E2), CST #2367). […]

Assay [2] deals with T2, p38δ (Homo sapiens, UniProt O15264).
T2 construct: endogenous in cells; host or cells: MDA-MB-231
T2 sequence (O15264 1-365): T1 sequence (O15264 1-365)
The assay can be described thus: PROTAC-induced p38δ degradation, western blot in MDA-MB-231 cells. Type of assay: cell-based. As to the method: MDA-MB-231 and HeLa cells were obtained from the American Type Culture Collection (ATCC), cultured in RPMI-1640 medium (1 × ) and Dulbecco’s modified Eagle’s medium (DMEM; 1 × ), respectively, containing 10% fetal bovine serum and 1% penicillin–streptomycin and grown in a humidified incubator at 37 °C and 5% CO2.
[…] once with ice-cold PBS (1 × ), followed by lysis in buffer containing 25 mM Tris [pH 7.5], 0.25% sodium deoxycholate, 1% Triton X-100, supplemented with 1X protease inhibitor cocktail (Roche), and phosphatase inhibitors (10 mM NaF, 1 mM Na3VO4, and 20 mM β-glycerophosphate), unless otherwise noted. Lysates were spun at 14,000 × g for 10 min at 4 °C and supernatant was evaluated for protein content using a Pierce BCA Protein Assay (ThermoFisher Scientific). In all experiments, 25–50 μg of protein was loaded onto 10% SDS-PAGE gels or 4–20% Criterion TGX precast gradient gels (Bio-Rad), transferred to nitrocellulose membranes, and probed with the specified antibodies overnight at 4 °C in 1X TBS-Tween (Tris-buffered saline plus 0.02% Tween 20) containing 5% non-fat milk. Immunoblots were visualized using a Bio-Rad ChemiDoc imaging instrument and subsequently processed and quantified using the accompanying Bio-Rad ImageLab software. See Supplementary Figure 8 for uncropped scans of western blots shown in the main text figures.
Western blot data in Figs. 2, 6, and Supplementary Figures 2, 3 were quantified by using the band feature in Image Lab (Bio-Rad). The p38 values were normalized to the α-tubulin signal to account for differences in protein load, and PROTAC-treated normalized values were expressed as a % of the vehicle-treated (no PROTAC) value, which itself was defined as 100% p38 protein level. […] The sigmoidal fit established both the full extent of degradation, or Dmax at the bottom asymptote of the curve, as well as the DC50, which is the inflection point at which 50% of the total degradation observed was reached.
A general note: Immunoblotting shows a protein as a band on a membrane.

The target of assay [3] is T2, p38δ. Put plainly: CETSA in MDA-MB-231 cell lysate, p38δ. It is filed as binding. To be noted: 100 µM PROTAC, 51-55 °C, vs DMSO. As to the method: CETSA protocol was adapted from[60]. In all, 3 × 10^7 MDA-MB-231 cells (1 × 10^7 cells per condition) were collected and resuspended in ice-cold 1X PBS supplemented with 1X protease inhibitor cocktail (Roche) and lysed by three cycles of liquid nitrogen snap freeze, followed by 50% thaw in a room temperature water bath and an additional 50% thaw at 4 °C. After each freeze–thaw cycle, lysate was vortexed briefly to ensure homogenous thawing. Lysate was then cleared for 20 min by centrifugation (14,000 × g at 4 °C) and the soluble fraction was divided into three equal aliquots. The aliquots were treated with vehicle (2.5% DMSO), 100 µM SJFα, or 100 µM SJFδ and incubated at room temperature for 30 min with gentle rotation. Each aliquot was then divided (50 µL) into eight PCR tubes and individually heated at the indicated temperature for 3 min followed by cooling at room temperature for 3 min. After cooling, samples were spun down for 20 min (14,000 × g at 4 °C) and the supernatant (soluble fraction) was analyzed by SDS-PAGE and immunoblotted for p38δ and alpha-tubulin (negative control).

The mark [4] stands for this setting: 0.025-5.0 µM survey, biological duplicates, ± one s.d., Supplementary Table 1.
The mark [5] stands for this setting: 0.025-5.0 µM survey, ± one s.d., Supplementary Table 1, read-out: Dmax p38δ (maximum percentage of degradation).
The mark [6] stands for this setting: wider dose response 1 nM-100 µM, Supplementary Figure 3, read-out: Dmax p38δ.

The DC50 is the concentration giving 50% degradation. High values mean a less potent degrader, low ones a more potent degrader. By Dmax is commonly meant the greatest extent of degradation seen. Turning to `COc1cc2c(Oc3ccc(NC(=O)C4(C(=O)Nc5ccc(F)cc5)CC4)cc3F)ccnc2cc1OCCCCOCCCCOCC(=O)N[C@H](C(=O)N1C[C@H](O)C[C@H]1C(=O)NCc1ccc(-c2scnc2C)cc1)C(C)(C)C` [SJFα], in assay [1], the “ubiquitination of immunoprecipitated FLAG-p38δ” value is “far less abundant”. The compound also displayed a half-maximal degradation concentration (DC50) in assay [2] (setting [4]) of 1160 ± 2470 nM. Further, the Dmax in assay [2] (setting [5]) was 25.1 ± 22.7%; in assay [2] (setting [6]), 18%. Moreover, the “thermal shift in the p38δ melting profile” value in assay [3] was “small, but statistically significant”.

Regarding `COc1cc2c(Oc3ccc(NC(=O)C4(C(=O)Nc5ccc(F)cc5)CC4)cc3F)ccnc2cc1OCCOCCOCCOc1cc(-c2scnc2C)ccc1CNC(=O)[C@@H]1C[C@@H](O)CN1C(=O)[C@H](C(C)C)N1Cc2ccccc2C1=O` [SJFδ], the “ubiquitination of immunoprecipitated FLAG-p38δ” value in assay [1] is listed as “levels of ubiquitination of immunoprecipitated p38δ greater than control cells”. The “p38δ downregulation after pre-treatment with 1 µM epoxomicin or 1 µM MLN4924” value in assay [2] (250 nM PROTAC, 6 h) is recorded as “completely rescued”. Also, the DC50 in assay [2] (setting [4]) was 79.2 ± 28 nM; in assay [2] (wider dose response 1 nM-100 µM, Supplementary Figure 3), 46.2 ± 9.85 nM. In addition, the maximal degradation (Dmax) is 98.4 ± 6.6% in assay [2] (setting [5]) and 99.4 ± 3.31% in assay [2] (setting [6]). Also, the “hook effect in p38δ degradation” value in assay [2] (up to 100 µM) is on record as “no hook effect”. Moreover, in assay [3], the “thermal shift in the p38δ melting profile” value is given as “more pronounced at each melting temperature”.
